This is an account of results in US12391646B2, “Using adiponectin receptor agonists to treat inflammation and bone diseases in diabetes” (Trustees of Tufts College, priority 2020, dated 2025).

The test system of series [1] is peritoneal macrophages (PEMs). Description: IL-6 and IL-1β production by peritoneal macrophages isolated from AdipoAI-treated mice. In kind it is in vivo, C57BL/6J mice. The following applies: i.p., 20 mg/kg body weight as printed.
In series [2] the test system is DIO mice. Description: Systemic inflammation in DIO mice, oral gavage 14 days. The series is classed as in vivo. The following applies: AdipoAI 25 mg/kg; for mRNA expression of IL-6 and IL-1β in WAT, spleen, bone marrow / serum levels of IL-6 and IL-1β: oral gavage 14 days, APR 50 mg/kg. The procedure:
FIG. 3 AdipoAI decreases inflammation in DIO mice (n=6). DIO mice were orally gavaged with APR (50 mg/kg) or AdipoAI (25 mg/kg) for 14 days, and control animals (WT or DIO mice) were administered with equivalent volumes of DMSO. mRNA expression levels of pro-inflammatory cytokines in (a) WAT, (b) spleen and (c) bone marrow were measured by qRT-PCR and normalized to the level of β-actin mRNA. Data are expressed as mean±SEM. (d) Serum levels of IL-6 and IL-1β were measured by ELISA. Data are expressed as mean #SEM. Representative images of H&E (e) and IHC of F4/80 staining (f) of spleen tissue in DIO mice (n=6). Red arrow indicates multinucleated giant cells (megakaryocytes). One-way ANOVA test for multiple-group comparisons, * vs. WT-vehicle group, # vs. DIO-vehicle group. */#P<0.05, significant differences between each indicated group. ns, not significant.
The Ethics Committee on the Use and Care of Animals at Tufts University approved the study protocol (Boston, MA, USA). The animals received humane care according to the criteria outlined in the Guide for the Care and Use of Laboratory Animals prepared by the National Academy of Sciences and published by the National Institutes of Health. All experiments involving animals or animal tissue are reported in compliance with the guidelines of ARRIVE and BJP (Kilkenny et al., 2010; McGrath and Lilley, 2015). Experimental protocols and design adhere to BJP guidelines (Curtis et al., 2015). Wild-type (WT, C57BL/6J, Jax #000664), DIO (Jax #380050), and APN KO (Jax #008195) mice were purchased from the Jackson Laboratory. The DIO mice were fed with a high-fat diet (containing 60% kcal from fat; Jackson Laboratory) at 6 weeks of age and later. The WT mice were fed with ordinary diet as normal chow (NC)-fed mice, and APN KO mice were maintained and fed with an NC diet as previously described (Tu et al., 2011). For the LPS-induced endotoxemia model, male C57BL/6 mice aged 8 weeks received oral gavage with APR (50 mg/kg body weight) or AdipoAI (25 mg/kg body weight) for 24 h before by LPS (20 mg/kg body weight) treatment which was administered intraperitoneally whereas control animals were treated with equivalent volumes of normal PBS. Mouse survival in each group was monitored and recorded up to 84 h. All mice were killed at 1 h for detection of activation of inflammatory genes, at 6 h for determination of inflammatory factors in serum, and at 24 h for histological evaluation. Animal data were excluded from experiments based on pre-established criteria of visible abnormal tissue structure during sample harvest or other health issues, including fighting wounds.

Series [3] deals with AdipoR1/2 mRNA expression. Nature of the series: qRT-PCR of AdipoR1/2 mRNA in Raw264.7 cells. The series is classed as cell-based. The following applies: 24 h. The procedure:
FIG. 10 Raw264.7 cells were treated with different doses of AdipoAI for 24 h to measure AdipoR1/2 mRNA expression by qRT-PCR. Data were expressed as the mean±SEM at five biological independent experiments. One-way ANOVA test for multiple-group comparisons, * vs. control group. *P<0.05, significant differences between each indicated group.
Total RNA of cells was extracted using Quick-RNA Miniprep Kit (ZYMO Research, Irvine, CA, USA) and total RNA from mouse tissues was prepared with TriZol reagent (Life Technologies) according to the manufacturer's instructions followed by qRT-PCR assays as described previously (L. Zhang et al., 2014). 1 μg of total RNA was used for reverse transcription using the M-MLV Reverse Transcriptase (Thermo Scientific, Waltham, MA, USA) according to the manufacturer's protocol using PowerUp SYBR Green Master Mix (Thermo Scientific) on a Bio-Rad iQ5 thermal cycler (Bio-Rad Laboratories, Hercules, CA, USA). Differences in expression were evaluated by the comparative cycle threshold method using GAPDH or β-actin as a control. The primer sequences used for the qRT-PCR experiments are listed in supplemental Table 1.
A general note: In qPCR the cycle at which signal appears reflects the starting amount.

For series [4], the system named is RAW 264.7 cells (osteoclast differentiation). Nature of the series: RANKL-induced osteoclast differentiation of RAW 264.7 cells. The note with it: for number of osteoclast-like cells (TRAP staining): co-culture with RANKL 6 days, AdipoRon 20 μM, AdipoAI 5 μM. The series is classed as cell-based. The procedure:
RAW 264.7 cells (ATCC, Manassas, VA, USA) were cultured and passaged in DMEM supplemented with 10% (v/v) FBS (Invitrogen, Grand Island, NY, USA) and 1% Penicillin-Streptomycin (Gibco, Gaithersburg, MD, USA). For the induction of osteoclastogenesis, RAW 264.7 cells were cultured 24 in α-MEM supplemented with 10% FBS and 1% Penicillin-Streptomycin in the presence of 100 ng/ml RANKL (Peprotech, Rocky Hill, NJ, USA) for 2 days, and subsequently treated or not with AdipoRon or AdipoAI for another 2 days changing cell culture medium every 2 days. After a total of […] of culture, morphologic examination was performed, as was mRNA and protein expression. To simulate high glucose environment in vitro, α-MEM was supplemented with D-glucose to 25 mmol/l (high glucose) or 5 mmol/l (physiological glucose). 20 mmol/l D-mannitol served as an osmotic control.
Total RNA was isolated from cell cultures and gingival soft tissues using TriZol reagent (Life Technologies, Carlsbad, CA, USA) according to the manufacturer's instructions^24. Reverse transcription was performed using the PrimeScript RT Master Mix (Takara Bio, Otsu, Japan) and real-time-qPCR analyses were performed using SYBR-Green Real-Time PCR Master Mix (Takara Bio, Otsu, Japan) as described earlier^27.

Series [5] concerns RAW 264.7 cells.
Protocol: (§1) RAW 264.7 cells were treated with receptor activator of nuclear factor KB ligand (RANKL) (100 ng/ml) for 2 days with or without AdipoRon (20 μM) or AdipoAI (5 μM) for another 2 days. […] (C) The CCK-8 analysis of RAW 264.7 cells treated with 20 μM AdipoRon or 5 μM AdipoAI for 48 h. (D) The CCK-8 analysis of RAW 264.7 cells' proliferation at different doses of APR and AdipoAI. Cells were treated with 100 ng/ml RANKL for 2 days with or without AdipoRon (5, 20 μM) or AdipoAI (5, 20 μM) every 2 days for 4 days. […] Data are shown as mean±SD., compared with the vehicle-treated group, *P<0.05. **P<0.01. ***P<0.001.
(§2) RAW 264.7 cells (2×10^3 cells/well) were seeded in 96-well plates and treated with or without AdipoRon or AdipoAI for 48 hours in a humidified chamber at 37° C. in 5% CO2 and air. Cell viability was determined with the Cell Counting Kit-8 (CCK-8 kit, Dojindo, Santa Clara, CA, USA) following the manufacturer's recommendations. Briefly, CCK-8 solution (10 μL) was added to each well and cells were incubated in dark for 3 hours. Cell viability was determined by measuring the absorbance at 450 nm.
For series [6], the system named is AdipoRs. The note with it: cited from earlier work.
For series [7] the following is noted: cited from earlier work.
In series [8] the test system is RAW 264.7 cells. Nature of the series: CCK-8 cell viability assay, Example 2. The following applies: 2 days, compared with vehicle-treated group.
Protocol: as §1, §2
Setting [9] is: higher concentration, RANKL 100 ng/ml.

Structures are written as SMILES. Where two headings read alike, the source gives them in different places.

On to `COc1ccc(CN2CCC(NC(=O)COc3ccc(C(=O)c4ccc(Cl)cc4)cc3)CC2)cc1` [Compound 3], for which the “production of IL-6 and IL-1β by PEMs from treated mice” value in series [1] is “reduced IL-6 and IL-1β”. Besides, in series [2] (14 days), the “megakaryocytes and macrophages in spleen (H&E, IHC F4/80)” value was “decreased quantity of megakaryocytes and macrophages”. Also, in series [2], the “mRNA expression of IL-6 and IL-1β in WAT, spleen, bone marrow” value is “inhibited mRNA expression of IL-6 (Il6) and IL-1β (Il1β)”; the “serum levels of IL-6 and IL-1β” value was “reduced IL-6 and IL-1β levels in the serum”. For the same compound, the “mRNA levels of AdipoRs” value in series [3] is listed as “increased the mRNA levels of AdipoRs”. Besides, in series [4] (5 μM, RANKL 100 ng/ml), the “downregulation of TRAP mRNA expression” value was 97.0% and the “downregulation of cathepsin K mRNA expression” value turned out to be 87.5%. For the same compound, in series [4], the “number of osteoclast-like cells (TRAP staining)” value is recorded as “significantly reduced the number of osteoclast-like cells”. In series [5], the “number of RAW 264.7 cells (CCK-8) at 20 μM” value is “reduced cell number”. In series [5] (mouse, 48 h, 5 μM), the “number of RAW 264.7 cells (CCK-8) at 5 μM” value is “did not reduce the number of RAW 264.7 cells”.

Regarding `O=C(COc1ccc(C(=O)c2ccccc2)cc1)NC1CCN(Cc2ccccc2)CC1` [AdipoRon, reference compound], in series [2], the “mRNA expression of IL-6 and IL-1β in WAT, spleen, bone marrow” value is “inhibited the expression levels of IL-6 and IL-1β”; the “serum levels of IL-6 and IL-1β” value is “inhibited the expression levels of IL-6 and IL-1β”. Moreover, the “downregulation of TRAP mRNA expression” value in series [4] (5 μM, RANKL 100 ng/ml) is given as “no significant inhibition in TRAP mRNA expression”. The “number of osteoclast-like cells (TRAP staining)” value in series [4] was “significantly reduced the number of osteoclast-like cells”. Moreover, in series [4] (setting [9]), the “inhibition of TRAP mRNA expression” value was 64.5% and the “inhibition of cathepsin K mRNA expression” value was found to be 65.1%. In series [6], the “binding affinity for AdipoRs” value was “low binding affinity for AdipoRs”. In series [7], the solubility result was “relatively low solubility”. Besides, the “number of RAW 264.7 cells (CCK-8) at 20 μM” value in series [8] was “did not reduce the number of RAW 264.7 cells”.
